In ChEMBL document CHEMBL4251590, “Novel vanillin derivatives: Synthesis, anti-oxidant, DNA and cellular protection properties” (Eur J Med Chem, 2018):
The source made the active and inactive calls. The calls are words filed in the database; no cut-off is given here.

What was measured:
[1] = test system: DNA; test: Antioxidant activity assessed as protection against AAPH-induced DNA damage in Escherichia coli plasmid pbr322 DNA after 1 hr by agarose gel electrophoresis method; format: functional
[2] = Antioxidant activity assessed as ferric ion reducing activity by measuring trolox equivalents using Fe3+-TPTZ after 30 mins by FRAP assay; format: functional
[3] = Antioxidant activity assessed as DPPH radical scavenging activity after 30 mins; format: functional
[4] = Antioxidant activity assessed as trolox equivalents of AAPH-induced radical scavenging activity pretreated for 30 mins followed by […] challenge measured every 2 mins for 2 hrs by ORAC-FL assay; format: functional
[5] = test system: SH-SY5Y; test: Cytoprotective activity against H2O2-induced oxidative damage in human SH-SY5Y cells up to 800 uM preincubated for 24 hrs followed by H2O2 addition and measured after 24 hrs by MTT assay; format: functional, cell-based
[6] = test system: SH-SY5Y; test: Cytoprotective activity against H2O2-induced oxidative damage in human SH-SY5Y cells at 200 uM preincubated for 24 hrs followed by H2O2 addition and measured after 24 hrs by MTT assay; format: functional
[7] = test system: SH-SY5Y; test: Cytotoxicity against human SH-SY5Y cells up to 1 mM incubated for 24 hrs by MTT assay; format: cell-based
[8] = test system: SH-SY5Y; test: Cytoprotective activity against H2O2-induced oxidative damage in human SH-SY5Y cells at 5 uM preincubated for 24 hrs followed by H2O2 addition and measured after 24 hrs by MTT assay; format: functional
[9] = Antioxidant activity assessed as DPPH radical scavenging activity up to 250 uM after 30 mins; format: functional
[10] = test system: DNA; test: Antioxidant activity assessed as protection against AAPH-induced DNA damage in Escherichia coli plasmid pbr322 DNA assessed as DNA intensity level at 0.33 uM after 1 hr by agarose gel electrophoresis method (reference value: 0%); format: functional
[11] = test system: DNA; test: Antioxidant activity assessed as protection against AAPH-induced DNA damage in Escherichia coli plasmid pbr322 DNA assessed as DNA intensity level at 1 uM after 1 hr by agarose gel electrophoresis method (reference value: 0%); format: functional
[12] = test system: SH-SY5Y; test: Cytoprotective activity against H2O2-induced oxidative damage in human SH-SY5Y cells at 10 uM preincubated for 24 hrs followed by H2O2 addition and measured after 24 hrs by MTT assay; format: functional
[13] = test system: SH-SY5Y; test: Cytoprotective activity against H2O2-induced oxidative damage in human SH-SY5Y cells at 0.1 uM preincubated for 24 hrs followed by H2O2 addition and measured after 24 hrs by MTT assay; format: functional
[14] = test system: DNA; test: Antioxidant activity assessed as protection against AAPH-induced DNA damage in Escherichia coli plasmid pbr322 DNA assessed as DNA intensity level at 4 uM after 1 hr by agarose gel electrophoresis method (reference value: 0%); format: functional
[15] = test system: DNA; test: Antioxidant activity assessed as protection against AAPH-induced DNA damage in Escherichia coli plasmid pbr322 DNA assessed as DNA intensity level at 0.65 uM after 1 hr by agarose gel electrophoresis method (reference value: 0%); format: functional
[16] = test system: SH-SY5Y; test: Cytotoxicity against human SH-SY5Y cells up to 20 uM incubated for 24 hrs by MTT assay; format: cell-based
[17] = test system: DNA; test: Antioxidant activity assessed as protection against AAPH-induced DNA damage in Escherichia coli plasmid pbr322 DNA assessed as DNA intensity level at 2.6 uM after 1 hr by agarose gel electrophoresis method (reference value: 0%); format: functional
[18] = test system: DNA; test: Antioxidant activity assessed as protection against AAPH-induced DNA damage in Escherichia coli plasmid pbr322 DNA assessed as DNA intensity level at 0.11 uM after 1 hr by agarose gel electrophoresis method (reference value: 0%); format: functional

Compound | IC50 [1] [µM] | Activity [2] [equiv] | IC50 [3] [µM] | Activity [4] [equiv] | also measured
COc1cc(C=O)ccc1O [VANILLIN] | 5.6 | 0.11 | 4050 | 2.19 | Activity [5]: inactive
COc1cc(CN(CCCO)Cc2ccc(O)c(OC)c2)ccc1O | 3.6 | 0.68 | 13.7 | 6.02 | Activity [6]: 20%; Activity [7]: Non-Toxic; Activity [8]: 6%
Oc1ccc(CN(Cc2ccc(O)cc2)c2ccc(N(Cc3ccc(O)cc3)Cc3ccc(O)cc3)cc2)cc1 | – | 2.78 | 98 | – | –
COc1cc(/C=N/Cc2ccccc2)ccc1O | 3.8 | 0.06 | 248 | 1.85 | –
COc1cc(CN(CCCCO)Cc2ccc(O)c(OC)c2)ccc1O | – | 0.62 | 21 | – | –
COc1cc(CN(CCCN)Cc2ccc(O)c(OC)c2)ccc1O | 61.5 | 0.28 | – | 4.08 | Activity [9]: inactive
COc1cc(C=O)cc(OC)c1O [SYRINGALDEHYDE] | 9.5 | 0.93 | 1150 | 1.45 | –
COc1cc(CN(CCCCCO)Cc2ccc(O)c(OC)c2)ccc1O | – | 0.63 | 24 | – | –
COc1cc(CN(Cc2ccc(O)c(OC)c2)[C@H]2CC[C@H](N(Cc3ccc(O)c(OC)c3)Cc3ccc(O)c(OC)c3)CC2)ccc1O | – | 0.56 | 138 | – | –
COc1cc(CN(CCCO)Cc2cc(OC)c(O)c(OC)c2)cc(OC)c1O | – | 1.14 | 12.3 | – | –
COc1cc(CN(Cc2ccccc2)Cc2cc(OC)c(O)c(OC)c2)cc(OC)c1O | – | 1.11 | 15.4 | – | –
c1ccc(CN(Cc2ccccc2)c2ccc(N(Cc3ccccc3)Cc3ccccc3)cc2)cc1 | – | 2.81 | 144 | – | –
COc1cc(CNCc2ccccc2)ccc1O | 4.1 | 0.16 | 107 | 3.16 | –
COc1cc(CN(CCO)Cc2ccc(O)c(OC)c2)ccc1O | – | 0.62 | 12.8 | – | –
COc1cc(CN(CCCCCCO)Cc2ccc(O)c(OC)c2)ccc1O | – | 0.64 | 22.2 | – | –
COc1cc(CN(CCCN(Cc2ccc(O)c(OC)c2)Cc2ccc(O)c(OC)c2)Cc2ccc(O)c(OC)c2)ccc1O | 13.9 | 0.74 | – | 7.54 | Activity [9]: inactive
COc1cc(CN(Cc2ccc(O)c(OC)c2)c2ccc(N(Cc3ccc(O)c(OC)c3)Cc3ccc(O)c(OC)c3)cc2)ccc1O | 0.6 | 5.29 | 5.8 | 20.4 | Activity [10]: 25.1%; Activity [11]: 81.9%; Activity [12]: 30%; Activity [13]: 8%; Activity [14]: 96.1%; Activity [15]: 59.7%; Activity [16]: Non-Toxic; Activity [17]: 90.5%; Activity [18]: 15.8%
CCCCN(Cc1ccc(O)c(OC)c1)Cc1ccc(O)c(OC)c1 | – | 0.6 | 21.9 | – | –
COc1cccc(CN(Cc2cccc(OC)c2)c2ccc(N(Cc3cccc(OC)c3)Cc3cccc(OC)c3)cc2)c1 | 13.6 | 2.54 | – | – | Activity [9]: inactive
COc1cc(CN(Cc2ccccc2)Cc2ccc(O)c(OC)c2)ccc1O | 3.8 | 0.55 | 29.7 | 5.34 | –
